{"source": "patent US9211238B2", "about": "“Carrier system for the transport of active substances into the skin” (priority 2010, dated 2015)", "experiment": "Anti-oxidative potential (AP) in vitro, test radical DPPH, ESR spectroscopy", "type": "biochemical", "details": "1% ferulic acid", "experimental": "The anti-oxidative potential (AP) of all described formulations was determined in vitro. In this method the formulations were incubated with a test radical (DPPH) and afterwards the reduction of these radicals over the time was measured by ESR (electron spin resonance spectroscopy). AP=amount of free radicals/mg of tested substance*minute."}
{"smiles": "COc1cc(/C=C/C(=O)O)ccc1O", "note": "[1% ferulic acid (EtOH/water), ferulic acid]", "values": [{"measurement": "anti-oxidative potential (AP)", "value": "AP = 723 amount of free radicals/mg of tested substance*minute"}]}
